Experiments:
Format in all cases: physicochemical
[1] = Effect of capsule components on drug stability (degraded compounds by HPLC); conditions: in various capsules, 60 °C for 2 weeks; % of the initial amount
Protocol: The effect of capsule components on the stability of FP, SX, or TB was investigated. The main materials and gelling agent of the capsule are described in Table 2. Each capsule was packed in an aluminum–aluminum blister and stored at 60 °C for 2 weeks. For comparison, commercial products are stored under the same conditions. Degraded compounds of FP, SX, or TB were analyzed as described in Section 2.5.
Degradation compounds of FP, SX, or TB were quantified using a high-performance liquid chromatography (HPLC) system (Hitachi, Tokyo, Japan) comprising a 5110 pump, 5430 detectors, a 5310 column oven, and 5210 autosamplers. While FP and SX were analyzed together, TB was assessed using a separate set of analytical conditions. Inertsil® ODS-2 column (4.6 mm × 250 mm, 5 μm) was used to analyze the degradation compounds of FP and SX. The powder, equivalent to 2.5 mg of FP and 0.725 mg of SX, was introduced into 5 mL of a mixture consisting of phosphoric acid, methanol, and distilled water in a ratio of 0.05:89.95:10. The mixture solution was vortexed for 30 min and passed through a 0.45 μm membrane filter. Fifty microliter aliquots of the filtered solution were injected and detected at 228 nm. […] Fifteen microliter aliquots of the sample solution were injected into the column at 50 °C and monitored at […] with a flow rate of 1.2 mL/min.

[2] = Particle size by laser diffraction (HELOS) after air jet milling
Protocol: The drug was supplied into a jet mill at a rate of 10 g/min with injection air and grinding air pressures set at among 1–4 bars. The particle size of the micronized TB was measured using high-resolution laser diffraction spectroscopy (HELOS; Sympatec, Clausthal-Zellerfeld, Germany).

[3] = Dissolution of fine particles less than 5 μm in simulated lung fluid; conditions: 37 °C, 75 rpm; for dissolved: within 15 min
Protocol: To collect the fine particles less than 5 μm on a glass fiber filter, abbreviated ACI was used [17, 18]. The micronized FP/SX/TB blend was dispersed at a flow rate of 60 L/min, and 4.0 L of air was withdrawn. The glass fiber filter with collected fine particles was assembled into a filter holder (Copley Scientific, Nottingham, UK). […] The filter holder was placed in a dissolution vessel, and 500 mL of simulated lung fluid was used as dissolution media [19]. The dissolution media was maintained at a temperature of 37 ± 0.5 °C with an agitation speed of 75 rpm. At a predetermined time, 2 mL of the media was collected and diluted with 0.1 M HCl, edetate disodium dihydrate, and methanol to achieve a ratio of 900:50:0.075:50. The diluted solution was filtered through a 0.45 μm PVDC membrane filter and analyzed by HPLC as described in Section 2.5.

[4] = powder without the air jet milling process (as from the manufacturer)

CCC(=O)O[C@]1(C(=O)SCF)[C@H](C)C[C@H]2[C@@H]3C[C@H](F)C4=CC(=O)C=C[C@]4(C)[C@@]3(F)[C@@H](O)C[C@@]21C [FP, fluticasone propionate]
total degraded compound of FP [1]: less than 0.7% | particle size [2, 4]: less than 5 μm | maximum dissolution [3]: approximately 20%

OCc1cc(C(O)CNCCCCCCOCCCCc2ccccc2)ccc1O (stereo not shown) [SX, salmeterol xinafoate]
particle size [2, 4]: less than 5 μm | dissolved [3]: more than 85%

C[N+]1(C)[C@@H]2C[C@@H](OC(=O)C(O)(c3cccs3)c3cccs3)C[C@H]1[C@@H]1O[C@@H]12 [TB, tiotropium bromide]
particle size ([2]; air jet mill condition I: injection air pressure 2 bar, grinding air pressure 1 bar): 3.1 ± 0.3 μm | particle size ([2]; air jet mill condition II: injection air pressure 3 bar, grinding air pressure 2 bar): 2.5 ± 0.1 μm | particle size ([2]; air jet mill condition III: injection air pressure 4 bar, grinding air pressure 3 bar): 1.4 ± 0.3 μm | particle size [2, 4]: 6.1 ± 0.8 μm | dissolved [3]: more than 85%

Source: article PMC11769347, “Development of Novel Fluticasone/Salmeterol/Tiotropium-Loaded Dry Powder Inhaler and Bioequivalence Assessment to Commercial Products in Rats” (Pharmaceutics, 2025)
